Values joined by “and” are separate entries in the source; they are usually repeats but may differ in a detail not shown here. Equal values may be shown once.
Test: Streptavidin-coated magnetic beads were treated with biotinylated small molecule ligands for 30 minutes at room temperature to generate affinity resins for kinase assays. The liganded beads were blocked with excess biotin and washed with blocking buffer (SeaBlock (Pierce), 1% BSA, 0.05% Tween 20, 1 mmol/L DTT) to remove unbound ligand and to reduce nonspecific phage binding. Binding reactions were assembled by combining kinases, liganded affinity beads, and test compounds in 1× binding buffer (1×PBS, 0.05% Tween 20, 0.1% BSA, 1 mmol/L DTT). Test compound was prepared as 111× stocks in 100% DMSO and directly diluted into the assay wells. All reactions were performed in polypropylene 384-well plates in a final volume of 0.02 mL. The assay plates were incubated at room temperature with shaking for 1 hour and the affinity beads were washed with wash buffer (1×PBS, 0.05% Tween 20). The beads were then re-suspended in elution buffer (1×PBS, 0.05% Tween 20, 0.5 μmol/L non-biotinylated affinity ligand) and incubated at room temperature with shaking for 30 minutes. The kinase concentration in the eluate was measured by qPCR.

Compound	Kd
COc1c(Oc2ccnc(NC(=O)C3CC3)c2)cnc2nc(Nc3cc(C(C)(C)C)n(C[C@H](C)O)n3)n(C)c12	< 0.01 µM
CC(=O)Nc1cc(Oc2ccc3nc(Nc4cc(C(F)(F)F)cn(C[C@@H]5COCCO5)c4=O)n(C)c3c2)ccn1	in the range around 0.525 µM
COc1c(Oc2ccnc(NC(=O)C3CC3)c2)cnc2nc(Cc3cc(C4CC4)cn(C)c3=O)n(C)c12	< 0.01 µM
CC(=O)Nc1cc(Oc2ccc3nc(Nc4cc(C5CC5)cn(CC5CC[C@@H]5O)c4=O)n(C)c3c2)ccn1 (some centres not stated)	< 0.01 µM
COc1c(Oc2ccnc(NC(=O)C3CC3)c2)cnc2nc(Nc3cc(C(C)(C)C)n(C[C@@H](C)O)n3)n(C)c12	< 0.01 µM
COc1ccc(Cn2cc(Cc3ccc(Nc4nc5ccc(Oc6ccnc(NC(C)=O)c6)cc5n4C)cc3C(F)(F)F)cn2)cc1	in the range around 0.525 µM
COc1c(Oc2ccnc(NC(C)=O)c2)cnc2nc(Nc3nc([C@@H]4CCOC4)c(C(C)(C)C)s3)n(C)c12	< 0.01 µM
CC(=O)Nc1ccc(Oc2cnc3c(c2)nc(Nc2cc(C(C)(C)C)n([C@H]4CCOC4)n2)n3C)cn1	< 0.01 µM
CO[C@H]1CCC1Cn1cc(C2CC2)cc(Nc2nc3ccc(Oc4ccnc(NC(C)=O)c4)cc3n2C)c1=O (some centres not stated)	< 0.01 µM
CC(=O)Nc1cc(Oc2cnc3nc(Nc4cc(C(C)C)n(CC(F)F)n4)n(C)c3c2)ccn1	< 0.01 µM
CC(=O)Nc1cc(Oc2cnc3nc(Nc4cc(C5CC5)cn(C)c4=O)n(C)c3c2Cl)ccn1	in the range around 0.03 µM
CC(=O)Nc1cc(Oc2cnc3nc(Nc4cc(C(C)C)n(CCF)n4)n(C)c3c2)ccn1	< 0.01 µM
COc1c(Oc2ccnc(NC(C)=O)c2)cnc2nc(Nc3nc([C@H]4CCOC4)c(C(C)(C)C)s3)n(C)c12	< 0.01 µM
CCCCO[C@H]1C[C@@H](n2nc(Nc3nc4ccc(Oc5ccnc(NC(C)=O)c5)cc4n3C)cc2C(C)(C)C)C1	< 0.01 µM
CC(C)(C)OC(=O)N1CC2(CC(n3nc(C(F)(F)F)cc3N)C2)C1	< 0.01 µM
COCCN1CC[C@@H](n2nc(NC3Nc4ncc(Oc5ccnc(NC(=O)C6CC6)c5)c(Cl)c4N3C)cc2C(C)(C)C)C1 (some centres not stated)	< 0.01 µM
CNc1cc(Oc2ccnc(NC(C)=O)c2)cnc1NC(=S)Nc1cc2n(n1)CCCC2(C)C	< 0.01 µM
CC(=O)Nc1cc(Oc2ccc3nc(Nc4cc(C5CC5)cn(C5CCC5O)c4=O)n(C)c3c2)ccn1 (configuration not stated)	< 10 nM (3×) and in the range around 30 nM
CC(=O)Nc1cc(Oc2cnc3nc(Nc4cc(C(C)(C)C)n(C[C@H]5CCN(C)CC5(F)F)n4)n(C)c3c2)ccn1	in the range around 3 µM
CC(=O)Nc1cc(Oc2cnc3nc(NC4=CC(C(F)(F)F)=CC(C)C4=O)n(C)c3c2Cl)ccn1 (configuration not stated)	< 0.01 µM
COc1c(Oc2ccnc(NC(C)=O)c2)cnc2nc(Nc3cc(C(C)(C)C)n(-c4ccn(CC(F)F)c4)n3)n(C)c12	< 0.01 µM
CNc1cc(Oc2ccnc(NC(C)=O)c2)cnc1NC(=S)Nc1cc(C2CC2)cn(C)c1=O	< 0.01 µM
CC(=O)Nc1cc(Oc2cnc3nc(Nc4cc(C(C)(C)C)n([C@H]5CCC[C@@H]5O)n4)n(C)c3c2)ccn1	in the range around 0.03 µM
CC(=O)Nc1cc(Oc2cnc3nc(Nc4cc5n(n4)CCCC5(C)C)n(C)c3c2Cl)ccn1	< 0.01 µM
CO[C@H]1CCOC[C@@H]1n1cc(C(F)(F)F)cc(Nc2nc3ccc(Oc4ccnc(NC(C)=O)c4)cc3n2C)c1=O	< 0.01 µM
CC(=O)Nc1cc(Oc2cnc3nc(Nc4cc(C(C)C)n(CCC#N)n4)n(C)c3c2C)ccn1	< 0.01 µM
CNC(=O)c1cc(Oc2ccc3nc(Nc4cc(C(C)(C)C)nn4C)n(C)c3c2)ccn1	in the range around 0.525 µM

— ChEMBL document CHEMBL5729782, “6-heteroaryloxy benzimidazoles and azabenzimidazoles as JAK2 inhibitors” (2023)
